Reference: patent US20250163057A1, “DCN-1 MODULATING COMPOUNDS AND METHODS OF USE THEREOF” (Cellarity, Inc., priority 2023, published 2025)
Read-outs that look alike come from different tables or passages of the source.

Assays:
[1] = system: fetal hemoglobin gene HBG1; assay: HBG1 Nanostring Assay in CD34+ HSPC erythroid differentiation culture; format: cell-based, human; details: for Nanostring Ymax obs (%): relative to a control compound (C1); for EC50: HBG1 induction, Day10 of erythroid differentiation
In short: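 CD34+ HSPCs were dosed from day −2 (0.1% DMSO) through two-phase erythroid differentiation (EPO, transferrin, SCF, IL-3, insulin; IL-3 removed from day 7) at 37° C, 5% CO2. Day-10 lysates of 100K cells were hybridized at 67° C for 22 h for nCounter counting, normalized to ERCC and housekeeping controls. EC50 and Ymax were derived, with Ymax relative to a control compound.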

[2] = biological target: DCN1 (DCUND1) protein PONY domain (Homo sapiens (Human), UniProt Q96GG9); assay: TR-FRET assay, DCN1 binding with FAM-labeled probe
Sequence of DCN1 (DCUND1) protein PONY domain (Q96GG9 60-248): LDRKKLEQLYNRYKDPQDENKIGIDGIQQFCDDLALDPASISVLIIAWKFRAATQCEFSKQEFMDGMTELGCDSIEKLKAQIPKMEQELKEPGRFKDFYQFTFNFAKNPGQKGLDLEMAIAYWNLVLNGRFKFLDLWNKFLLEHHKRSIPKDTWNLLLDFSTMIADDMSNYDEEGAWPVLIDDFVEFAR
In short: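 Binding was read as the TR-FRET ratio between a FAM-tagged inhibitor probe and Tb-labeled biotinylated E. coli-expressed DCN1 PONY domain, measured 1, 5 and 24 h after compound addition. The two setups used 5 nM protein/20 nM FAM-probe or 0.31 nM protein/900 nM total probe (100 nM labeled), in TritonX buffer with 200 mM NaCl.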

[3] = 24 hr after treatment with compound, read-out: TR FRET IC50 24 hr
[4] = read-out: TR FRET IC50 1 hr, 1 hr after treatment with compound
[5] = TR FRET IC50 1 hr (nM), 1 hr after treatment with compound

SMILES | Nanostring Ymax obs (%) [1] | IC50 [2, 3] [nM] | IC50 [2, 4] [nM] | EC50 ([1]; Homo sapiens, 240 h) [nM] | IC50 [2, 5] [nM] | EC50 [1] [nM]
CCN1C(=O)[C@@H](NC(=O)c2cccc(C(F)(F)F)c2)[C@@H](c2ccc(F)cc2)c2c(C(=O)N3CCC[C@H]3C#N)nn(-c3ccccc3)c21 (mixture of isomers) [Compound I-34] | ++ (Nanostring Ymax greater than 50.0 and less than or equal to 100.0) |  |  |  |  | 
CCN1C(=O)[C@@H](NC(=O)c2cccc(C(F)(F)F)c2)[C@@H](C2CC2)c2c(C(=O)N3CCS(=O)(=O)C[C@H]3C#N)nn(C3CCOCC3)c21 (mixture of isomers) [Compound I-379] | +++ (Nanostring Ymax greater than 100.0) | ≤ 200 | ≤ 200 | ≤ 100 |  | 
CCN1C(=O)[C@@H](NC(=O)c2cccc(C(F)(F)F)c2)[C@@H](c2ccc(F)cc2)c2c(C(=O)N3CS(=O)(=O)C[C@H]3C#N)nn(C3CCOCC3)c21 (mixture of isomers) [Compound I-661, N-((4S,5S)-3-(4-cyano-1,1-dioxidothiazolidine-3-carbonyl)-7-ethyl-4-(4-fluorophenyl)-6-oxo-1-(tetrahydro-2H-pyran-4-yl)-4,5,6,7-tetrahydro-1H-pyrazolo[3,4-b]pyridin-5-yl)-3-(trifluoromethyl)benzamide] | ++ (Nanostring Ymax greater than 50.0 and less than or equal to 100.0) | ≤ 200 | ≤ 200 | ≤ 100 |  | 
CCN1C(=O)[C@@H](NC(=O)c2cccc(C(F)(F)F)c2)[C@@H](c2ccc(F)cc2)c2c(CNC(=O)/C=C/C(=O)OC)nn(-c3ccccc3)c21 (racemic) [Compound I-3] | +++ (Nanostring Ymax greater than 100.0) | ≤ 200 | ≤ 200 | ≤ 100 |  | 
C=C(CN1CCC1)C(=O)NCc1nn(-c2ccccc2)c2c1[C@H](c1ccc(F)cc1)[C@H](NC(=O)c1cccc(C(F)(F)F)c1)C(=O)N2CC (racemic) [Compound I-49, rac-N-((4R,5R)-3-((2-(azetidin-1-ylmethyl)acrylamido)methyl)-7-ethyl-4-(4-fluorophenyl)-6-oxo-1-phenyl-4,5,6,7-tetrahydro-1H-pyrazolo[3,4-b]pyridin-5-yl)-3-(trifluoromethyl)benzamide] | ++ (Nanostring Ymax greater than 50.0 and less than or equal to 100.0) | ≤ 200 |  |  | ≤ 200 | 
CCN1C(=O)[C@@H](NC(=O)c2cccc(C(F)(F)F)c2)[C@@H](c2ccc(F)cc2)c2c(NC(=O)C3=CCC3)nn(-c3ccccc3)c21 (racemic) [Compound I-152] | +++ (Nanostring Ymax greater than 100.0) | ≤ 200 | ≤ 200 | 100 to 1000 |  | 
CCN1C(=O)[C@@H](NC(=O)c2cccc(C(F)(F)F)c2)[C@@H](c2ccc(F)cc2)c2c([C@@H](C)NC#N)nn(-c3ccccc3)c21 [Compound I-73, N-((4S,5S)-3-((R)-1-cyanamidoethyl)-7-ethyl-4-(4-fluorophenyl)-6-oxo-1-phenyl-4,5,6,7-tetrahydro-1H-pyrazolo[3,4-b]pyridin-5-yl)-3-(trifluoromethyl)benzamide] | ++ (Nanostring Ymax greater than 50.0 and less than or equal to 100.0) | ≤ 200 | ≤ 200 | ≤ 100 |  | 
CCN1C(=O)[C@@H](NC(=O)c2cccc(C(F)(F)F)c2)[C@@H](c2ccc(F)cc2)c2c(CN(C)C#N)nn(-c3ccccc3)c21 [Compound I-92] | ++ (Nanostring Ymax greater than 50.0 and less than or equal to 100.0) | ≤ 200 | 200 to 1000 |  |  | 100 to 1000
CCN1C(=O)[C@@H](NC(=O)c2cccc(C(F)(F)F)c2)[C@@H](c2ccc(F)cc2)c2c(C(=O)NC3(C#N)CC3)nn(-c3ccccc3)c21 [Compound I-112] | +++ (Nanostring Ymax greater than 100.0) | 200 to 1000 |  | 100 to 1000 | 1000 to 3000 | 
C=C(CN1CCC1)C(=O)NCc1nn(-c2ccccc2)c2c1[C@@H](c1ccc(F)cc1)[C@H](NC(=O)c1cccc(C(F)(F)F)c1)C(=O)N2CC [Compound I-139] | ++ (Nanostring Ymax greater than 50.0 and less than or equal to 100.0) | ≤ 200 | ≤ 200 |  |  | 
CCN1C(=O)[C@@H](NC(=O)c2cccc(C(F)(F)F)c2)[C@@H](c2ccc(F)cc2)c2c(CNC#N)nn(-c3ccccc3)c21 [Compound I-140, N-[(4S, 5S)-3-[(cyanoamino)methyl]-7-ethyl-4-(4-fluorophenyl)-6-oxo-1-phenyl-4,5-dihydropyrazolo[3,4-b]pyridine-5-yl]-3-(trifluoromethyl) benzamide] | ++ (Nanostring Ymax greater than 50.0 and less than or equal to 100.0) | ≤ 200 | ≤ 200 | 100 to 1000 |  | 
CCN1C(=O)[C@@H](NC(=O)c2cccc(C(F)(F)F)c2)[C@@H](C2CC2)c2c(C(=O)N3[C@H](C#N)C[C@H]4C[C@H]43)nn(C3CCOCC3)c21 [Compound I-256, N-((4S,5S)-3-((1R,3S,5R)-3-cyano-2-azabicyclo[3.1.0]hexane-2-carbonyl)-4-cyclopropyl-7-ethyl-6-oxo-1-(tetrahydro-2H-pyran-4-yl)-4,5,6,7-tetrahydro-1H-pyrazolo[3,4-b]pyridin-5-yl)-3-(trifluoromethyl)benzamide] | +++ (Nanostring Ymax greater than 100.0) | ≤ 200 | ≤ 200 | ≤ 100 |  | 
CCN1C(=O)[C@@H](NC(=O)c2cccc(C(F)(F)F)c2)[C@@H](c2ccc(F)cc2)c2c(C(=O)N3[C@H](C#N)C[C@H]4C[C@H]43)nn(-c3ccccc3)c21 [Compound I-277] | +++ (Nanostring Ymax greater than 100.0) | ≤ 200 | ≤ 200 | ≤ 100 |  | 
CCN1C(=O)[C@@H](NC(=O)c2cccc(C(F)(F)F)c2)[C@@H](c2ccc(F)cc2)c2c(C(=O)N3CCC[C@H]3C#N)nn(-c3ccccc3)c21 [Compound I-278] | +++ (Nanostring Ymax greater than 100.0) | ≤ 200 |  | ≤ 100 | 200 to 1000 | 
CCN1C(=O)[C@@H](NC(=O)c2cccc(C(F)(F)F)c2)[C@@H](c2ccc(F)cc2)c2c(C(=O)N3CCNCC3C#N)nn(C3CCOCC3)c21 (stereo partly shown) [Compound I-334] | +++ (Nanostring Ymax greater than 100.0) | ≤ 200 | ≤ 200 | ≤ 100 |  | 
CCN1C(=O)[C@@H](NC(=O)c2cccc(C(F)(F)F)c2)[C@@H](c2ccc(F)cc2)c2c(C(=O)N3CCC[C@H]3C#N)nn(C3CCOCC3)c21 [Compound I-350] | +++ (Nanostring Ymax greater than 100.0) | ≤ 200 | ≤ 200 |  |  | ≤ 100
CCN1C(=O)[C@@H](NC(=O)c2cccc(C(F)(F)F)c2)[C@@H](c2ccc(F)cc2)c2c(C(=O)N3CCNC[C@H]3C#N)nn(C3CCOCC3)c21 [Compound I-363, N-((4S,5S)-3-((S)-2-cyanopiperazine-1-carbonyl)-7-ethyl-4-(4-fluorophenyl)-6-oxo-1-(tetrahydro-2H-pyran-4-yl)-4,5,6,7-tetrahydro-1H-pyrazolo[3,4-b]pyridin-5-yl)-3-(trifluoromethyl)benzamide] | +++ (Nanostring Ymax greater than 100.0) | ≤ 200 | ≤ 200 | ≤ 100 |  | 
CCN1C(=O)[C@@H](NC(=O)c2cccc(C(F)(F)F)c2)[C@@H](c2ccc(F)cc2)c2c(C(=O)N(C)[C@@H](C#N)CCN(C)C)nn(C3CCOCC3)c21 [Compound I-369] | +++ (Nanostring Ymax greater than 100.0) | ≤ 200 | ≤ 200 | ≤ 100 |  | 
CCN1C(=O)[C@@H](NC(=O)c2cccc(C(F)(F)F)c2)[C@@H](c2ccc(F)cc2)c2c(C(=O)N(C)[C@H](C#N)CCN(C)C)nn(C3CCOCC3)c21 [Compound I-370] | +++ (Nanostring Ymax greater than 100.0) | ≤ 200 | ≤ 200 | ≤ 100 |  | 
CCN1C(=O)[C@@H](NC(=O)c2cccc(C(F)(F)F)c2)[C@@H](C2CC2)c2c(C(=O)N3C[C@H](F)C[C@H]3C#N)nn(C3CCOCC3)c21 [Compound I-372] | ++ (Nanostring Ymax greater than 50.0 and less than or equal to 100.0) | ≤ 200 | ≤ 200 | 100 to 1000 |  | 
CCN1C(=O)[C@@H](NC(=O)c2cccc(C(F)(F)F)c2)[C@@H](C2CC2)c2c(C(=O)N3C[C@H](OC)C[C@H]3C#N)nn(C3CCOCC3)c21 [Compound I-377] | +++ (Nanostring Ymax greater than 100.0) | ≤ 200 | ≤ 200 | ≤ 100 |  | 
CCN1C(=O)[C@@H](NC(=O)c2cccc(C(F)(F)F)c2)[C@@H](C2CC2)c2c(C(=O)N3CCNC[C@H]3C#N)nn(-c3ccccc3)c21 [Compound I-383] | ++ (Nanostring Ymax greater than 50.0 and less than or equal to 100.0) | ≤ 200 | ≤ 200 | ≤ 100 |  | 
CCN1C(=O)[C@@H](NC(=O)c2cccc(C(F)(F)F)c2)[C@@H](C)c2c(C(=O)N3[C@H](C#N)C[C@H]4C[C@H]43)nn(C3CCOCC3)c21 [Compound I-387] | +++ (Nanostring Ymax greater than 100.0) |  |  |  |  | ≤ 100
